In PubChem BioAssay (NCI):
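Results reflect a 48-hour exposure of cells in 96-well plates to compound at five concentrations. At the GI50, growth is halved. TGI: concentration producing complete growth inhibition.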

Experiments:
Experiment in all cases: inhibition of tumour cell growth, NCI panel, 48 h
[1] = system: CCRF-CEM leukemia
[2] = system: CAKI-1 renal
[3] = system: MDA-MB-231 breast
[4] = system: BT-549 breast
[5] = system: TK-10 renal
[6] = system: T-47D breast
[7] = system: SR leukemia
[8] = system: NCI-H522 lung
[9] = system: NCI-H226 lung
[10] = system: HL-60(TB) leukemia

Row | SMILES | GI50 [1] [µM] | TGI [1] [µM] | GI50 [2] [µM] | TGI [2] [µM] | GI50 [3] [µM] | TGI [3] [µM] | GI50 [4] [µM] | TGI [4] [µM] | GI50 [5] [µM] | TGI [5] [µM] | GI50 [6] [µM] | TGI [6] [µM] | GI50 [7] [µM] | TGI [7] [µM] | GI50 [8] [µM] | TGI [8] [µM] | GI50 [9] [µM] | TGI [9] [µM] | GI50 [10] [µM] | TGI [10] [µM]
1 | Fc1cccc(COc2ccc(Nc3ncncc3C#Cc3ccccc3)cc2Cl)c1 | > 25 | > 25 | 12.5 | > 25 | > 25 | > 25 | > 25 | > 25 | 15 | > 25 | 20 | > 25 | > 25 | > 25 | > 22.4 | > 25 | > 25 | > 25 | > 25 | > 25
2 | NC(CO)Cc1cnc[nH]1 (centres undefined) | > 100 | > 100 | – | > 100 | – | > 100 | – | > 100 | > 100 | > 100 | > 100 | > 100 | > 100 | > 100 | – | > 100 | > 100 | > 100 | > 100 | > 100
3 | N#CC(=C1SCS1)[N+](=O)[O-] | 0.376 | 5.18 | 2.14 | 16.2 | 4.94 | 20.4 | 9.3 | 23 | 3.68 | 13.4 | 0.724 | 20.9 | 0.568 | 4.31 | 0.687 | 2.08 | 16.7 | 62.8 | 0.618 | 6.36
4 | CC(C)(C)OC(=O)NC(Cc1ccccc1)C(=O)OCN1C(=O)C2C3C=CC(C2C1=O)C1C2C(=O)N(COC(=O)C(Cc4ccccc4)NC(=O)OC(C)(C)C)C(=O)C2C31 (centres undefined) | – | > 68.5 | – | > 100 | – | > 94.2 | – | 92.6 | – | > 91.2 | – | > 100 | – | 4.06 | – | 85 | – | > 96.4 | – | > 57.5
5 | Cc1nn(-c2ccc(F)cc2)c2ncnc(Nc3ccc(NC(=O)Nc4ccc(Cl)c(C(F)(F)F)c4)cc3)c12 | 1.57 | 13.2 | 1.83 | 4.75 | 2.03 | 5.55 | 2.39 | 8.48 | 2.85 | 10.4 | 1.73 | 5.27 | 3.07 | 40.5 | 1.74 | 4.42 | 2.31 | 5.99 | 2.73 | 8.1
6 | C=CC(=O)N[C@H]1C=C(C)c2c(-c3cnc4ccccc4c3)c3c(N)ncnc3n2C1 | 22.3 | > 100 | 1.82 | 17.6 | 9.57 | 27 | 12.5 | 41.9 | 0.0478 | 7.88 | 2.22 | > 100 | 18.3 | > 100 | 0.699 | 20.4 | 8.85 | > 68.1 | 29.8 | > 80.4
7 | CCN1CCN(c2nc(NCCCNc3ccnc4cc(Cl)ccc34)c3ccccc3n2)CC1 | 2.88 | 10.3 | – | – | 2.08 | 5.14 | 3.45 | 13.6 | 2.17 | 4.79 | 1.87 | 5.5 | 1.29 | 5.44 | 2.92 | 6.14 | 4.97 | 26 | 2.18 | 4.25
8 | O=C(Nc1nc2ccccc2s1)OCC(F)(F)F | > 100 | > 100 | > 100 | > 100 | > 100 | > 100 | > 100 | > 100 | > 100 | > 100 | > 100 | > 100 | > 100 | > 100 | > 100 | > 100 | > 100 | > 100 | > 100 | > 100
9 | Cc1ccn2c3c(c(C(=O)O)c2c1)C(=O)c1ccccc1C3=O | > 100 | > 100 | > 100 | > 100 | 11.8 | > 100 | 3.9 | 53.6 | > 100 | > 100 | > 100 | > 100 | > 30.5 | > 100 | > 45.7 | > 100 | 2.46 | 17.4 | > 100 | > 100
10 | CCCCCCCCCCCCCC(=S)NCCCC[C@H](NC(=O)OCc1ccccc1)C(=O)Nc1ccccc1 | 4.04 | > 100 | – | – | 5.53 | > 100 | 39.6 | > 100 | 4.4 | > 100 | 4.52 | > 100 | 3.9 | > 100 | 2.84 | 31.2 | 5.71 | > 100 | 3.89 | > 100
11 | C=C1C(=O)O[C@H]2[C@H]1CC/C(CNC(=O)c1c[nH]c3ccc(F)cc13)=C\CC[C@@]1(C)O[C@@H]21 | 0.359 | 1.83 | – | – | 1.46 | 3.58 | 1.19 | 2.7 | – | – | 1.36 | 5.03 | 1.01 | 4.78 | 0.282 | 1.31 | 13.9 | 38.6 | 2.18 | 5.95
12 | N#Cc1c(-c2cccs2)c2c(=S)[nH]c(=S)[nH]c2[nH]c1=S | – | – | 31.4 | > 100 | 39 | > 100 | 23.5 | 56.2 | 90.7 | > 100 | 28.1 | 98.8 | 29.3 | > 100 | 29.1 | 79 | 37.2 | > 100 | 15.4 | 47.9
13 | CC(=O)OCC1OC(O[C@@H]2C[C@H]3C(C)(C)[C@H](OC(C)=O)CC[C@]3(C)[C@H]3CCC4=C([C@@H](C)C[C@@H](O)[C@H](O)C(C)(C)O)CC[C@@]4(C)[C@@]32C)C(O)C(O)C1O (some centres undefined) | 15.9 | 34.1 | 15.6 | 28.9 | 11.6 | 23.8 | 15.4 | 28.7 | – | – | 16.5 | 30.3 | 12.2 | 27.8 | 13.2 | 27.2 | 17.3 | 32 | 13 | 28.8
